Data reported in patent publication US7906709B2, “Methods for breeding glyphosate resistant plants and compositions thereof” (priority 2006, dated 2011).
Marks after values point to notes of the source that are not given here.

Tests used:
[1] = tested on: S biotype of the California rigid ryegrass; assay: Glyphosate drops on leaves, susceptible biotype; assay type: in vivo, Lolium rigidum; conditions: three 2 µl drops on two leaves, corresponds to 1.12 kg ai ha^-1; one week after treatment; ROUNDUP ULTRA (isopropylamine salt)
Protocol: (§1) Rigid ryegrass (Lolium rigidum Gaud.) plants are collected from an almond orchard intensively treated with glyphosate since 1984. The collected plants are grown and seed produced in greenhouse. The resistant, intermediate and susceptible biotypes are selected in the first generation using 1.12, 2.24, and 3.36 kg ai ha^−1 rates of glyphosate. Further selection is continued with a high glyphosate rate (8.96 kg ai ha^−1) to select for the resistant and with the low rate (0.28 kg ai ha^−1) to select for the susceptible individuals. The resistant (R) and susceptible (S) biotypes used in this example are generated from the 5th and 4th cycle, respectively.
R and S biotypes of the California rigid ryegrass are grown individually to the fully vegetatively mature stage prior to seedhead formation. In one experiment, two fully mature leaves of each plant (one R and one S biotypes) are treated with three 2 μl drops of glyphosate (glyphosate isopropylamine salt, ROUNDUP ULTRA™, Monsanto Co., St. Louis, Mo.) solution applied to the upper leaf surface. This corresponds to a field rate of 1.12 kg ai ha^−1 glyphosate at a volume of 187 L ha^−1 and pressure of 172.5 kPa. One week after treatment, the S biotype is dead, but no injury is observed on the R biotype.

[2] = tested on: F2 population of rigid ryegrass; assay: Glyphosate sensitivity of F2 population (RxS intercross); assay type: in vivo, Lolium rigidum; conditions: of 400 F2 plants
Protocol: Twenty uniform non-sprayed plants of the F1 progeny (R×S) are grown and pooled to allow intercrossing to generate F2. Seeds are harvested at maturity and grown as described previously. Glyphosate sensitivity is further evaluated in the F2 population. At the tillering stage, as described previously, 400 plants of the F2 population are sprayed with 0.125× glyphosate (the rate used to identify the sensitive parent). The number of sensitive plants (severely injured and dead) is recorded 3 to 4 WAT. The survivors are re-acclimated for another week and re-sprayed with 8× glyphosate (the rate used to identify the resistant parent). The number of survivors is recorded 3 to 4 WAT. […] Expected ratios in the F2 population between sensitive, intermediate, and the resistant are evaluated with the model of one or two genes involved in the inheritance of glyphosate resistance as discussed in, for example, Diggle and Neve in Herbicide Resistance and World Grains, S. B. Powles and D. L. Shaner, eds. CRC Press, Boca Raton, London, New York, Washington, D.C., pp. 61-99 (2001). Chi-square analyses are used to determine the most acceptable ratio for F2 segregation and the inheritance of the glyphosate resistance.

[3] = tested on: F1 progeny of R and S lines of California rigid ryegrass; assay: Glyphosate sensitivity of F1 progeny (RxS, SxR); assay type: in vivo, Lolium rigidum
From the text: Cross-pollination is arranged in the greenhouse between one plant each of the R and S lines which have similar maturity. To prevent pollen contamination from un-wanted ryegrass, the plants are covered with transparent plastic. The likelihood of selfing is less than 3% as discussed in, for example, Thorogood, Perennial Ryegrass (Lolium perenne L.) in M. D. Casler and R. R. Duncan, eds. Turfgrass Biology, Genetics, and Breeding, John Wiley & Sons, Inc., pp. 75-105 (2003). About 500 seeds from both R and S plants are harvested at maturity and kept separately. F1 plants are grown and maintained similarly as previously described. The F1 progeny are evaluated for glyphosate sensitivity when the plants are 5 to 8 cm tall. Glyphosate is sprayed at 0.125×, 0.5×, 0.25×, 1×, 2×, 4×, 6×, and 8× and the spray solutions prepared and delivered as described previously. The response of 10 plants in each of two experiments to glyphosate is recorded 3 and 4 WAT.

[4] = tested on: first generation of rigid ryegrass (Lolium rigidum) collected from California; assay: Glyphosate resistance and sensitivity of the first generation; assay type: in vivo; conditions: for Survivors: means of two experiments with 90 plants
Protocol: as §1
The collected plants produced seeds in the greenhouse after 8 to 10 weeks. The seeds are designated as the first generation, harvested and replanted for glyphosate resistant evaluation. The percentages of survivors are 89, 59, 45, and 9 percent following glyphosate application at 1×, 2×, 4× and 8×, respectively, is shown in Table 2.

[5] = tested on: resistant (R) clone from F2bc1 hybrid; assay: Glyphosate sensitivity of resistant clone from F2bc1; assay type: in vivo, Lolium perenne x Lolium rigidum
Protocol: The resistant plant from F2 population is backcrossed to the S parent (perennial ryegrass). Procedures for vernalization and pollination are similar to what is described above. Plants of the F1 hybrid from the backcross (F1bc1) are allowed to intercross to generate F2 (F2bc1). The inheritance of glyphosate resistance traits is evaluated in the F2bc1 population. Glyphosate sensitivity is evaluated at 0.25× and 8× glyphosate. Data collection and genetic evaluation are similar to the procedures as described above.
Backcrossing between the resistant plants from F2 to the sensitive parent of perennial ryegrass is designed to re-capture agronomic characteristics of sensitive parents (perennial ryegrass). The level of glyphosate resistance in the F1bc1 population appears to be similar to the previous results in F1 population. Distribution of glyphosate sensitivity level in the F2bc1 population is illustrated in FIG. 5. A sample of the resistant plants from the F2bc1 is evaluated for the level of sensitivity at 0, 1, 2, 4, 6, 8, 10, 12, and 14× glyphosate and data is illustrated in FIG. 6. No injury is observed up to 6× glyphosate, slight injury is observed at 8× and 10×, and severe injury is observed at 12× glyphosate.

[6] = glyphosate 1.12 kg ai ha^-1 (1x)
[7] = glyphosate 2.24 kg ai ha^-1 (2x)
[8] = glyphosate 4.48 kg ai ha^-1 (4x)
[9] = glyphosate 8.96 kg ai ha^-1 (8x)

`O=C(O)CNCP(=O)(O)O` [glyphosate, N-(phosphonomethyl) glycine] was tested, and the Plant injury [1] was “dead”, the “Sensitive plants (died from 0.125× glyphosate), observed” value ([2]; 0.125× glyphosate, 3 to 4 WAT) was 27 plants and the “Intermediate plants (0.125x-8x), observed” value ([2]; between 0.125× and 8× glyphosate) was 352 plants. For the same compound, the “Resistant plants (survived 8× glyphosate), observed” value ([2]; re-sprayed with 8× glyphosate, 3 to 4 WAT) was 21 plants, the injury ([3]; 2× glyphosate, 4 WAT) was 20-30% and the recovery from injury ([3]; 2× glyphosate, after 5 weeks) was “full recovery”. For the same compound, the “highest glyphosate rate survived” value ([3]; F1 progeny (RxS) and (SxR)) was “up to 2 ×”, the “effect on F1 plants” value ([3]; glyphosate at 4× and higher rates) was “killed” and the Dead plants [4, 6] was 11^c percent. The Survivors [4, 6] was 89%, the Dead plants [4, 7] was 41% and the Survivors [4, 7] was 59%. For the same compound, the Dead plants [4, 8] was 55%, the Survivors [4, 8] was 45% and the Dead plants [4, 9] was 91%. The Survivors [4, 9] was 9%, the Survivors ([4]; glyphosate 8.96 kg ai ha^-1 (8x), listed as Glyphosate) was 9^b percent and the injury ([5]; 8× and 10× glyphosate) was “slight injury”. For the same compound, the injury ([5]; 12× glyphosate) was “severe injury” and the injury ([5]; up to 6× glyphosate) was “No injury”.
